This is an account of results in PubChem BioAssay AID179 (DTP/NCI, 2004).

The EC50 is the concentration giving half of the maximal effect. Broadly, the IC50 is the concentration that gives 50% inhibition. Low readings indicate higher potency, high ones lower potency.

The source made the active and inactive calls.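 How the source made its calls: active means compounds giving half or more protection of infected cells from virus-caused growth loss, again on retest; inactive means the rest.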 Bounds are passed on as bounds.

This test relates to CEM cells HIV-1 protection, formazan growth assay. Kind of test: NCI AIDS Antiviral Assay. The settings on record: for IC50: measured here: growth of uninfected CEM cells. Summed up:
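Category rules: moderately active means at least 50% protection on retest, and confirmed active means 100% protection reproducibly. The underlying data came from a formazan growth assay in HIV-1-infected CEM cells.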

For the compound `NC(=S)NNC(=O)/C(=C/c1ccc(/C=C(\NC(=O)c2ccccc2)C(=O)NNC(N)=S)cc1)NC(=O)c1ccccc1`, the EC50 was above 8.71 µM and the IC50 was above 8.71 µM.
In the case of `O=c1[nH]nc(Cc2ccccc2)n1/N=C/c1ccc([N+](=O)[O-])cc1`, the EC50 is above 200 µM and the IC50 is above 200 µM.
For the compound `O=C(O)CC1NC(/C(=C/c2ccccc2)NC(=O)c2ccccc2)OC1=O` (centres undefined), the EC50 is above 200 µM and the IC50 was determined as 9.12 µM.
Taken in the same sequence, the figures for `Cc1cn(C2OC(CO)CC2F)c(=O)[nH]c1=O` (centres undefined) were above 646 µM and above 646 µM.
Taken in the same sequence, the figures for `COc1ccc2c(C)cc(=O)oc2c1OC` were above 200 µM and above 200 µM.
Taken in the same sequence, the figures for `CCOC(=O)C1=C(C)N(Cc2ccccc2)C(C)=C(C(=O)OCC)C1c1ccccc1O` were above 16.6 µM and above 16.6 µM.
Turning to `CCOC(=O)/C(C(=S)NC)=C(/N)N1CCCC1`, the EC50 is above 200 µM and the half-inhibitory concentration (IC50) is above 200 µM.
`CC1CCCN(CC(O)CN2CCN(CC(O)CN3CCCC(C)C3)C(C)C2)C1` (centres undefined): the EC50 was above 316 µM and the IC50 was above 316 µM.
Consider `N#Cc1ccc(NC(=NCC(=O)O)Nc2ccc3ccccc3c2)cc1`, for which the result was inactive.
Turning to `O=c1c2cccc3cccc(c4n1CCCN=4)c32`, the EC50 is above 200 µM and the IC50 is 17 µM.
On to `O=C(OCCc1ccccc1)c1cc2ccc(O)c(O)c2cn1`, for which the EC50 is above 8.32 µM and the IC50 is above 8.32 µM.
As to `O=C1C2CCCCC2C(=O)N1n1c(Cc2ccccc2)n[nH]c1=O` (centres undefined), the EC50 was above 200 µM and the IC50 was above 200 µM.
For the compound `COCOc1c(OC)c(C2(O)C(=O)N(C)c3ccccc32)c(OCOC)c(OC)c1C1(O)C(=O)N(C)c2ccccc21` (centres undefined), the EC50 was above 200 µM and the IC50 was determined as 42.7 µM.
The matching figures for `C/C(CN1C(=O)c2ccccc2C1=O)=N\NS(=O)(=O)c1ccc(Cl)cc1`: above 457 µM and above 457 µM.
Take `CC(CCC(=O)O)(c1ccc(O)c(CN(c2ccccc2)c2ccccc2)c1)c1ccc(O)c(CN(c2ccccc2)c2ccccc2)c1`: the outcome was inactive.
On the same count and under the same terms, the value for `C1CNCCNCCNCCN1` was “inactive”.
On to `O=C(O)Cc1ccc(-n2nnc3c(=O)[nH][nH]c(=O)c32)cc1`, for which the EC50 was above 200 µM and the half-inhibitory concentration (IC50) is above 200 µM.
Take `CCN(CC)CC1CCCCN1CC(=O)N1c2ccc(Br)cc2C(=O)Nc2cccnc21` (centres undefined): the EC50 was above 200 µM and the IC50 was above 200 µM.
As to `CCC1=C(C[C@H]2NCCc3cc(OC)c(OC)cc32)C[C@H]2c3cc(OC)c(OC)cc3CCN2C1`, the result was inactive.
On to `COc1ccc(N=C2C(=S)N(c3ccc(OC)cc3)/C(=N/S(=O)(=O)c3ccccc3)N2c2ccccc2)cc1`, for which the EC50 was above 20 µM and the IC50 amounted to 0.389 µM.
The matching figures for `CCOC(=O)C(=O)NNc1cc(=O)n(C)c(=O)n1C`: above 200 µM and above 200 µM.
For the compound `COc1cc(OC)c(C2=NOC(n3c4ccccc4c4ccccc43)C2)c(OC)c1` (centres undefined), the outcome was inactive.
As to `COc1cc2c(cc1OC)C1c3ccccc3CCCN1CC2` (centres undefined), the EC50 is above 200 µM and the IC50 amounted to 123 µM.
For `O=C1NC2(CCCCC2)C2CCCCC(O)C12` (centres undefined), the outcome was inactive.
In the case of `Cc1cc(C)nc(NS(=O)(=O)c2ccc(NC(=O)c3cccc4c(Nc5ccc(S(=O)(=O)Nc6nc(C)cc(C)n6)cc5)c5ccccc5nc34)cc2)n1`, the EC50 was above 33.9 µM and the concentration for half-maximal inhibition (IC50) was found to be 30.2 µM.
Taken in the same sequence, the figures for `C/C(CN1C(=O)c2ccccc2C1=O)=N\NS(=O)(=O)c1cccc([N+](=O)[O-])c1` were above 617 µM and above 617 µM.
Consider `CC(=O)N(/N=C1\CC(c2ccccc2)Oc2ccccc21)C(C)=O` (centres undefined), for which the EC50 was above 200 µM and the concentration for half-maximal inhibition (IC50) was 102 µM.
For the compound `O=c1c(O)c(-c2ccc(O)cc2O)oc2cc(O)cc(O)c12`, the outcome was inactive.
Take `NC(=O)C(=CNC(=S)N=Nc1c(O)[nH]c2ccccc12)C(N)=O`: the EC50 is above 200 µM and the IC50 was 166 µM.
As for `CCc1nnc2sc(=S)[nH]n12`, the result was inactive.
`COc1ccc(/C=N/n2cnc3c(c2=O)SC(=C(C#N)C#N)N3c2ccccc2)cc1`: the EC50 was above 6.17 µM and the IC50 was above 6.17 µM.
For `O=c1ssc(Cl)c1-c1ccccc1`, the EC50 is above 200 µM and the IC50 came to 10.2 µM.
Taken in the same sequence, the figures for `CCOC(=O)C1(C#N)C(c2ccccc2)CC(O)(c2ccc(OC)cc2)C(C(=O)c2ccc(OC)cc2)C1c1ccccc1` (centres undefined) were above 12.3 µM and above 12.3 µM.
Taken in the same sequence, the figures for `C=CCN1c2ccccc2Sc2cnccc21` were above 191 µM and 33.1 µM.
Regarding `Cc1c(C)c(C)c(-n2c(=O)n(C)c(=O)n2C(C)(C)C)c(C)c1C`, the EC50 was above 200 µM and the IC50 worked out at 3.31 µM.
Taken in the same sequence, the figures for `O=C(c1ccc(Cl)cc1)C1N=NCC1c1ccccc1` (centres undefined) were above 200 µM and 75.9 µM.
Taken in the same sequence, the figures for `COc1cc2oc3c(C)c(=O)cc4oc(-c5ccccc5)cc(c2c2c1CCC(c1ccccc1)O2)c43` (centres undefined) were above 4.07 µM and above 4.07 µM.
In turn, `O=C(O)c1ccccc1-c1c2ccc(=O)c(Br)c-2oc2c(Br)c(O)ccc12` displayed an EC50 above 200 µM and a concentration for half-maximal inhibition (IC50) of 37.2 µM.
The matching figures for `O=C(Nc1ccc2[nH]c(=S)sc2c1)Nc1ccccc1F`: above 200 µM and 33.1 µM.
Consider `COc1ccc(NC(=O)CSc2nnc(Cc3ccccc3)o2)cc1`, for which the EC50 was above 100 µM and the IC50 was 23.4 µM.
The matching figures for `O=C1CC2c3c(OCc4ccccc4)cc(OCc4ccccc4)cc3OC2O1` (centres undefined): above 25.7 µM and above 25.7 µM.
In the case of `Cc1csc2[nH]c3ccccc3[n+]12`, the result was inactive.
In the case of `CC(=O)Nc1ccc(/C=C/C(=O)c2sc(-c3nc(C)c(C(=O)/C=C/c4ccc(NC(C)=O)cc4)s3)nc2C)cc1`, the EC50 is above 33.1 µM and the IC50 is above 33.1 µM.
For the compound `COc1cc(C)cc2c1C(=O)C(NC(C)=O)=CC2=O`, the EC50 was above 200 µM and the IC50 turned out to be 11.7 µM.
Taken in the same sequence, the figures for `C=CCNC(=S)NC=C(C(N)=O)C(N)=O` were above 200 µM and above 200 µM.
Taken in the same sequence, the figures for `COc1cc(N=Nc2ccc(N=Nc3cc(NC(C)=O)c(N=Nc4ccc(S(=O)(=O)O)cc4)cc3S(=O)(=O)O)c(C)c2)c(C)cc1NC(=O)c1ccc(N)cc1` were 3.55 µM and 102 µM.
Turning to `CCOC(=O)NP(=O)(NC(=O)OCC)NC(=O)OCC`, the outcome was inactive.
On to `CC1(C)C2C=C(CCN3CCOCC3)CC1C2` (centres undefined), for which the EC50 was above 200 µM and the IC50 was above 200 µM.
In the case of `CC(C)(C)c1ccc(N=O)cc1`, the EC50 is above 20 µM and the IC50 worked out at 2.45 µM.
`CCOP(=O)(/C=C/c1ccccc1)OCC`: the result was inactive.
Turning to `N#CNC(N)=NC1=CC(=O)C(=O)c2ccccc21`, the EC50 was above 30.2 µM and the IC50 is 17.4 µM.
Taken in the same sequence, the figures for `O=C(CC1(O)C(=O)Nc2c(Cl)cc(Cl)cc21)c1ccco1` (centres undefined) were above 398 µM and 83.2 µM.
Turning to `CC(Cl)(/C=C/Cl)C(Cl)/C=C/C(Cl)(CCl)CBr` (centres undefined), the result was inactive.
Still for that read-out and setting: the value for `OC[C@H]1NC[C@@H](O)[C@@H](O)[C@H]1O` was “inactive”.
In the case of `O=C1N(O)C2(C=CCCC2)/C(=N/O)C12CCCCC2` (centres undefined), the EC50 was above 70.8 µM and the IC50 was above 70.8 µM.
`CC1(C)CC2C(C1=O)C1(C)CCCC2(C)C1=O` (centres undefined): the EC50 was above 200 µM and the IC50 was above 200 µM.
As for `Cc1nn(C(=O)c2ccc(Cl)cc2)c2c1C(c1ccc(O)cc1)SC(N)=N2` (centres undefined), the EC50 was above 200 µM and the IC50 was above 200 µM.
As for `Nc1nc(Nc2ccc(Cl)c(Cl)c2)c(N=O)c(=O)[nH]1`, the EC50 is above 200 µM and the 50% inhibitory concentration (IC50) amounted to 3.72 µM.
Taken in the same sequence, the figures for `S=C(NCCc1ccccn1)c1nc[nH]c1C(=S)NCCc1ccccn1` were above 200 µM and 19.1 µM.
`[N-]=[N+]=Nc1cc(=O)n(-c2ccccc2)c(=O)n1-c1ccccc1`: the EC50 was above 200 µM and the IC50 is above 200 µM.
As to `O=C(O)CCSC(=O)Nc1ccc([N+](=O)[O-])cc1`, the outcome was inactive.
Take `O=C1CSC(c2ccccc2O)N1c1ccc(-n2c(-c3ccccc3)nc3ccccc3c2=O)cc1` (centres undefined): the EC50 was above 200 µM and the IC50 came to 11.2 µM.
Take `C=C1C(=O)OC2/C=C(\C=O)CC/C=C(\C)C(O)C[C@@H]12` (some centres undefined): the EC50 was above 200 µM and the half-maximal inhibitory concentration (IC50) was 2.95 µM.
The matching figures for `CCCCCCCCCCCCSSSCCCCCCCCCCCC`: above 200 µM and above 200 µM.
The matching figures for `COC1C(N)C(OC2C(Oc3cccc4c(O)c5c(=O)oc6ccc(C)c7c(=O)oc(c34)c5c67)OC(C)C(O)C2(C)O)OC(C)C1O` (centres undefined): above 0.2 µM and 0.0363 µM.
`C#CC(C)(C)Oc1ccc2c(=O)c(-c3ccc(OC)c(OC)c3)coc2c1`: the EC50 was above 200 µM and the IC50 came out at 22.4 µM.
The matching figures for `COc1ccc2c(=O)c(O)c(-c3ccc(OC)c(OC)c3)oc2c1`: above 200 µM and above 200 µM.
Taken in the same sequence, the figures for `CCCCSCCC(N)P(=O)(O)O` (centres undefined) were above 200 µM and above 200 µM.
Taken in the same sequence, the figures for `COc1ccccc1CNCCCCCNCCCCCCCCCCNCCCCCNCc1ccccc1OC` were above 200 µM and 28.8 µM.
As to `NC(=O)c1cc2ccccc2[n+](Cc2ccc(F)cc2)c1`, the EC50 is 200 µM and the half-inhibitory concentration (IC50) is 339 µM.
The matching figures for `COc1ccc(NC(=O)CC2SC(=Nc3ccc(Cl)cc3C)NC2=O)c([N+](=O)[O-])c1` (centres undefined): above 398 µM and above 398 µM.
Regarding `C=CCNC(=O)N(CCC)CCCCC(NC(C)=O)C(=O)NCc1ccccc1` (centres undefined), the EC50 was above 89.1 µM and the IC50 is above 89.1 µM.
As to `S=C1C(CCCOCc2ccccc2)C2CCCC23CC2(CCN13)OCCS2` (centres undefined), the EC50 is above 200 µM and the IC50 was 39.8 µM.
Taken in the same sequence, the figures for `CCOC(C)C(/C=N/NC(N)=S)=NNC(N)=S` (centres undefined) were above 20 µM and 1.86 µM.
